Results reported in patent publication US11850237B2, “Compounds and methods for treating influenza” (priority 2009, dated 2023).
In brackets after ≈: the same amount, converted by molar mass. Where two headings read alike, the source gives them in different places.

Legend:
[1] = test system: H1N1 A/PR/8/34 (PR8); assay: microbe, parasite or virus in culture; assay type: cell-based, influenza A virus; conditions: for EC50 / EC90: Influenza A virus; for EC90: read-out: Virus Yield EC90; for antiviral activity against PR8, overall rating: PR8 influenza A virus, Table 1
[2] = test system: MDCK cells; assay: Toxicity / cell viability by MTT in uninfected MDCK cells; assay type: cell-based, canine; conditions: MDCK cells, MTT
Procedure: (§1) Cell culture, treatment and transfection-Madin-Darby canine kidney (MDCK) cells, and human A549 alveolar type II-like epithelial, Jurkat Tlymphoblastoid and U397 monocytic leukemia cells were grown at 37° C. in a 5% CO2 atmosphere in RPMI 1640 (Invitrogen), supplemented with 10% fetal calf serum (FCS), 2 mM glutamine and antibiotics. Test compounds were added immediately after 1-hour adsorption period, and kept in the culture medium for the entire time of the experiment, unless differently specified. […] Cell viability was determined by the 3-(4,5-dimethylthiazol-2-yl)-2,5-diphenyltetrazolium bromide (MTT) to MTT formazan conversion assay (Sigma-Aldrich) as described previously. Microscopical examination of mock-infected or virus-infected cells was performed using a Leica DM-IL microscope and images were captured on a Leica DC 300 camera using Leica Image-Manager500 software.

[3] = as above; assay type: cell-based, canine; conditions: dog, uninfected MDCK cells; uninfected cells
Procedure: as §1

[4] = test system: H1N1 A/PR/8/34 (PR8) virus; assay: microbe, parasite or virus in culture; assay type: cell-based, influenza A virus; conditions: for PR8 Yield: Nitazoxanide 0 μg/ml
[5] = test system: H1N1 A/PR/8/34 (PR8) virus; assay: microbe, parasite or virus in culture; assay type: cell-based, influenza A virus; conditions: oseltamivir alone at test concentrations up to 1
[6] = target: viral hemagglutinin (HA0) (Influenza A virus, UniProt P03452); assay type: cell-based
viral hemagglutinin (HA0), sequence (P03452 18-565 limits assumed): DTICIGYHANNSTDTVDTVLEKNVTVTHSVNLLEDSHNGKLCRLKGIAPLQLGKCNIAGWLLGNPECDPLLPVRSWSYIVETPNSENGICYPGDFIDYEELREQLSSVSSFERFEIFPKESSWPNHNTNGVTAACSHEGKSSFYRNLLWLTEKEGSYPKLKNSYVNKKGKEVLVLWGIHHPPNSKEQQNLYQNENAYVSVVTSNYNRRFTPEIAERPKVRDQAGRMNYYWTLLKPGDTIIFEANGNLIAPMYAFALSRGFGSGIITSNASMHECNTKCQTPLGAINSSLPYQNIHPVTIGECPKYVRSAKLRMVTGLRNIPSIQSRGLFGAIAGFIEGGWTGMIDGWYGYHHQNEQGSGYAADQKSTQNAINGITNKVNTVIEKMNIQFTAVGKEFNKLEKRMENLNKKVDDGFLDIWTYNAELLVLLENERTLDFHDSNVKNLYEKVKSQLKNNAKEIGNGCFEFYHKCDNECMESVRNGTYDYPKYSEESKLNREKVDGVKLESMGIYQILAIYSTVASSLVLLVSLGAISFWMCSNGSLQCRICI

[7] = PR8, MDCK cells, read-out: Virus Yield EC50
[8] = MDCK, 24 h, read-out: EC50, inhibition of virus replication

Compound | EC50 [1, 7] [µg/mL] | EC90 ([1]; PR8, MDCK cells) [µg/mL] | Toxicity LD50 (MTT) [2] [µg/mL] | further results
O=C(Nc1ncc([N+](=O)[O-])s1)c1ccccc1[O-].[Na+] [Compound 3, tizoxanide sodium salt] | 0.4 | 2.5 | >50 | antiviral activity against PR8, overall rating [1]: potent and selective
CC(C)COC(=O)Oc1ccccc1C(=O)Nc1ncc([N+](=O)[O-])s1 [Compound 14] | 1 (≈ 2.74 µM) | 8 (≈ 21.9 µM) | 20 | 
CCOC(=O)Oc1ccccc1C(=O)Nc1ncc([N+](=O)[O-])s1 [Compound 15] | 1 (≈ 2.96 µM) | 7 (≈ 20.8 µM) | 30 | 
CCC(=O)Oc1ccccc1C(=O)Nc1ncc([N+](=O)[O-])s1 [Compound 16] | 1 (≈ 3.11 µM) | 8 (≈ 24.9 µM) | 20 | 
O=C(Oc1ccccc1C(=O)Nc1ncc([N+](=O)[O-])s1)c1ccccc1 [Compound 17] | 3 (≈ 8.12 µM) | 9 (≈ 24.4 µM) | >50 | 
CC(=O)Oc1ccccc1C(=O)Nc1nc(S(C)(=O)=O)cs1 [Compound 27] | 0.1 (≈ 0.294 µM) | 0.8 (≈ 2.35 µM) | >50 | EC50 [1, 8]: 0.1 µg/mL (≈ 0.294 µM); potency relative to NTZ and TIZ ([1]; PR8, MDCK cells): 10 times; antiviral activity against PR8, overall rating [1]: potent and selective; CC50 [3]: > 50 µg/mL
CS(=O)(=O)c1csc(NC(=O)c2ccccc2O)n1 [Compound 28] | 0.1 (≈ 0.335 µM) | 0.7 (≈ 2.35 µM) | >50 | EC50 [1, 8]: 0.1 µg/mL (≈ 0.335 µM); potency relative to NTZ and TIZ ([1]; PR8, MDCK cells): 10 times; antiviral activity against PR8, overall rating [1]: potent and selective; CC50 [3]: > 50 µg/mL
CC(=O)Oc1ccccc1C(=O)Nc1nc([S+](C)[O-])cs1 (centres unmarked) [Compound 29] | 10 (≈ 30.8 µM) | > 50 | >50 | 
C[S+]([O-])c1csc(NC(=O)c2ccccc2O)n1 (centres unmarked) [Compound 30] | 10 (≈ 35.4 µM) | > 50 | >50 | 
CC(=O)Oc1cccc(C(=O)Nc2nc(S(C)(=O)=O)cs2)c1 [Compound 31] | > 50 | > 50 | >50 | 
CS(=O)(=O)c1csc(NC(=O)c2cccc(O)c2)n1 [Compound 32] | > 50 | > 50 | >50 | 
CSc1csc(NC(=O)c2ccc(OC(C)=O)cc2)n1 [Compound 33] | > 50 | > 50 | >50 | 
CC(=O)Oc1ccc(C(=O)Nc2nc(S(C)(=O)=O)cs2)cc1 [Compound 34] | > 50 | > 50 | >50 | 
CS(=O)(=O)c1csc(NC(=O)c2ccc(O)cc2)n1 [Compound 35] | > 50 | > 50 | >50 | 
CC(=O)Oc1ccccc1C(=O)Nc1nc(S(=O)(=O)C(C)C)cs1 [Compound 36] | 1 (≈ 2.71 µM) | 8 (≈ 21.7 µM) | >50 | antiviral activity against PR8, overall rating [1]: potent and selective
CC(C)S(=O)(=O)c1csc(NC(=O)c2ccccc2O)n1 [Compound 37] | 0.6 (≈ 1.84 µM) | 15 (≈ 46 µM) | >50 | antiviral activity against PR8, overall rating [1]: potent and selective
CC(=O)Oc1ccccc1C(=O)Nc1nc(S(=O)(=O)C2CCCCC2)cs1 [Compound 38] | 25 (≈ 61.2 µM) | > 50 | >50 | 
O=C(Nc1nc(S(=O)(=O)C2CCCCC2)cs1)c1ccccc1O [Compound 39] | 10 (≈ 27.3 µM) | 30 (≈ 81.9 µM) | >50 | 
CC(=O)Oc1ccccc1C(=O)Nc1ncc(S(=O)(=O)c2ccc([N+](=O)[O-])cc2)s1 [Compound 51] | 3.5 (≈ 7.82 µM) | 9 (≈ 20.1 µM) | 30 | 
CC(=O)Oc1ccccc1C(=O)Nc1ncc(S(C)(=O)=O)s1 [Compound 52] | 30 (≈ 88.1 µM) | > 50 | >50 | 
CS(=O)(=O)c1cnc(NC(=O)c2ccccc2O)s1 [Compound 53] | 10 (≈ 33.5 µM) | > 50 | >50 | 
CS(=O)(=O)c1cnc(NC(=O)c2ccccc2[O-])s1.[Na+] [Compound 54] | 10 | > 50 | >50 | 
CCCCS(=O)(=O)c1cnc(NC(=O)c2ccccc2OC(C)=O)s1 [Compound 59] | 5 (≈ 13.1 µM) | 30 (≈ 78.4 µM) | >50 | 
CC(=O)Oc1ccc(C(=O)Nc2ncc(S(C)(=O)=O)s2)cc1 [Compound 63] | 10 (≈ 29.4 µM) | > 50 | >50 | 
CS(=O)(=O)c1cnc(NC(=O)c2ccc(O)cc2)s1 [Compound 64] | > 50 | > 50 | >50 | 
CC(=O)Oc1cccc(C(=O)Nc2ncc(S(C)(=O)=O)s2)c1 [Compound 65] | > 50 | > 50 | >50 | 
CS(=O)(=O)c1cnc(NC(=O)c2cccc(O)c2)s1 [Compound 66] | > 50 | > 50 | >50 | 
CC(=O)N[C@H]1[C@H]([C@H](O)[C@H](O)CO)OC(C(=O)O)=C[C@@H]1N=C(N)N [Zanamivir] |  |  |  | EC50 ([4]; Influenza A virus, zanamivir alone, PR8, MDCK cells, read-out: EC50): 1000 nM; PR8 Yield ([4]; Zanamivir 0.01 μM): 48 HAU/ml; PR8 Yield ([4]; Zanamivir 0.1 μM): 48 HAU/ml; PR8 Yield ([4]; Zanamivir 1 μM): 24 HAU/ml; effect on viral replication ([4]; zanamivir alone at 0.1 μM): had no effect; reduction (inhibition) of virus yield ([4]; zanamivir alone at the highest test concentration of 1): 50%
CCOC(=O)C1=C[C@@H](OC(CC)CC)[C@H](NC(C)=O)[C@@H](N)C1 [oseltamivir, reference compound] |  |  |  | reduction (inhibition) of virus yield [5]: did not observe reduction
tunicamycin [TM, reference compound] |  |  |  | HA0 glycosylation (glucosamine, mannose incorporation) [6]: completely prevented HA0 glycosylation; intracellular HA0 levels / accumulation [6]: caused a decrease in HA0 accumulation
